Test results published in US20080200544A1, “Oil agent and lubricant agent, moisturizer and external preparation composition containing the same” (priority 2007, published 2008).
Where a name gives a salt, the structure may show the parent alone.

Key:
[1] = Viscosity, Brookfield viscometer DV-II+ (Spindle No. 2, 12 rpm, 25° C.); format: physicochemical; settings: for Viscosity: 25° C.; for Feeling of use: class assigned from viscosity at 25° C.
Experimental: In this specification, “viscosity” refers to a value of viscosity measured using a Brookfield viscometer DV-II+ (Spindle No. 2, 12 rpm, 25° C.).
In these examples, viscosity was measured using a Brookfield viscometer DV-II+ (Spindle No. 2, 12 rpm, 25° C.).

[2] = Oil solubility evaluation in KAK99; settings: in KAK99 (isononyl isononanoate)
[3] = Water solubility evaluation; settings: in water

Row | Compound | Viscosity [1] | Oil solubility [2] | Feeling of use [1] | Water solubility [3]
1 | CCOCCOCCOC(=O)CCCCC(=O)OCCOCCOCC [Example 3, dicarbitol adipate] | 20 mPa · s | – | light | –
2 | CCOCCOCCOCCOC(=O)CCC(=O)OCCOCCOCCOCC [Example 5, di(triethylene glycol monoethyl ether) succinate] | 32.5 mPa · s | Δ (Dissolved in KAK99 up to 5% by mass) | – | –
3 | CCOCCOC(=O)CCC(=O)OCCOCC [Example 6, di(monoethylene glycol monoethyl ether) succinate] | 10.0 mPa · s | – | light | Δ (Dissolved in water up to 5% by mass)
4 | CCOCCOCCOC(=O)CCC(=O)OCCOCCOCC [Example 1, dicarbitol succinate] | 12.5 mPa · s | – | light | –

Second part, led by results:

Row | Viscosity [1] | Oil solubility [2] | Compound | Feeling of use [1] | Water solubility [3]
5 | 5 mPa · s | – | dicarbitol isononanoate [compound 1, reference compound] | light | –
6 | 207 mPa · s | – | CCOCCOCCOC(=O)C(O)C(O)C(=O)OCCOCCOCC (stereo not drawn) [Example 4, dicarbitol tartrate] | – | –
7 | 45 mPa · s | Δ (Dissolved in KAK99 up to 5% by mass) | CCOCCOCCOC(=O)CC(O)C(=O)OCCOCCOCC (stereo not drawn) [Example 2, dicarbitol malate] | – | ◯ (Dissolved in water up to 10% by mass)
